Source: ChEMBL document CHEMBL5370619, “Targeting the Tyrosine Kinase 2 (TYK2) Pseudokinase Domain: Discovery of the Selective TYK2 Inhibitor ABBV-712” (J Med Chem, 2023)
pEC50: −log10 of the molar value. Converted amounts (≈) assume the structure as drawn.

Columns and labels:
[1] = biological target: Tyrosine-protein kinase JAK2 (Homo sapiens, UniProt O60674); test: Inhibition of JAK2 in human UT7 cells assessed as reduction in erythropoietin induced STAT5 phosphorylation preincubated for 30 mins followed by erythropoietin stimulation and measured after 20 mins by AlphaScreen assay; type: cell-based
Sequence of Tyrosine-protein kinase JAK2 (O60674 whole entry): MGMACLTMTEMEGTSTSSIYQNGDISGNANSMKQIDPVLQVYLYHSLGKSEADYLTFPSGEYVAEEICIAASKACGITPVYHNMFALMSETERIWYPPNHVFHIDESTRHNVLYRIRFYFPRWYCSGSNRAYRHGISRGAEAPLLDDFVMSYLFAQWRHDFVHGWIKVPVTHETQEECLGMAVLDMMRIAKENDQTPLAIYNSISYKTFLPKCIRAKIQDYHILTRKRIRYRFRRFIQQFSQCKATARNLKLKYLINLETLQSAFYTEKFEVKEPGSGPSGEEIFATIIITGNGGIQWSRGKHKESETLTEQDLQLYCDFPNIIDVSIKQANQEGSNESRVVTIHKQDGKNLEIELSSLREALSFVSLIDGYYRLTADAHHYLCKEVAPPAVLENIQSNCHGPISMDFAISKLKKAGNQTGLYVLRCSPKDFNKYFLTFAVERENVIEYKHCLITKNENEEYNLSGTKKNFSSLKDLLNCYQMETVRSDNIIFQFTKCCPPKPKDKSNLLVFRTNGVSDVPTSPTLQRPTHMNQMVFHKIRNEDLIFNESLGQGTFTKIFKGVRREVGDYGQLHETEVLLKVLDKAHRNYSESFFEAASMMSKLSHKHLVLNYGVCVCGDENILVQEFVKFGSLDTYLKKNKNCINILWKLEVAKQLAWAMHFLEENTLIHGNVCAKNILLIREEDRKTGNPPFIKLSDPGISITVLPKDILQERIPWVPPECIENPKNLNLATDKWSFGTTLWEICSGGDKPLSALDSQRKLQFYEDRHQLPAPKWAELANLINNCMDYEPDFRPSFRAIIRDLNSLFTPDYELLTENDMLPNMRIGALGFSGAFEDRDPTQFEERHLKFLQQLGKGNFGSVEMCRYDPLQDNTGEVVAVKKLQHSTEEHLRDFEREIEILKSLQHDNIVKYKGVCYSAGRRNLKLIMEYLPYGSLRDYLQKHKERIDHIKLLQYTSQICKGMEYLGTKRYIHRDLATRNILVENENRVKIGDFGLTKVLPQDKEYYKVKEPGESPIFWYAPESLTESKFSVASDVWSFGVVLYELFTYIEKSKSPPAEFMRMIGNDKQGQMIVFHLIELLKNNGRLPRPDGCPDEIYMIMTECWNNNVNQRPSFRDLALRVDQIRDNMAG

[2] = Metabolic stability in human hepatocytes assessed as intrinsic clearance for unbound fraction of drug; type: ADME, cell-based, Hepatocyte
[3] = Unbound clearance in dog blood at 1 mg/kg, iv; type: ADME, organism-based, Canis lupus familiaris; details: in vivo
Mus musculus [4] = test: Anti-inflammatory activity in B10.RII mouse model of mouse IL-23 mini circle induced psoriasiform dermatitis assessed as decrease in ear thickness at 10 mg/kg,po BID for 5 days by caliper analysis; type: functional; set-up: scale not given: the % may be the effect or the level left; details: time 5 day
[5] = Unbound clearance in cynomolgus monkey blood at 1 mg/kg, iv; type: ADME, organism-based, Macaca fascicularis; details: in vivo
Mus musculus [6] = test: Anti-inflammatory activity in B10.RII mouse model of mouse IL-23 mini circle induced psoriasiform dermatitis assessed as decrease in ear thickness at 30 mg/kg,po BID for 5 days by caliper analysis; type: functional; set-up: scale not given: the % may be the effect or the level left; details: time 5 day
CYP3A4 [7] = biological target: T1, CYP3A4 (Homo sapiens, UniProt P08684); test: Induction of CYP3A4 in human hepatocytes assessed as maximum activation in mRNA level at 10 uM incubated for 24 hrs by RT-qPCR analysis relative to control; type: ADME, cell-based, Hepatocyte; details: read-out: max activation
T1 sequence (P08684 whole entry): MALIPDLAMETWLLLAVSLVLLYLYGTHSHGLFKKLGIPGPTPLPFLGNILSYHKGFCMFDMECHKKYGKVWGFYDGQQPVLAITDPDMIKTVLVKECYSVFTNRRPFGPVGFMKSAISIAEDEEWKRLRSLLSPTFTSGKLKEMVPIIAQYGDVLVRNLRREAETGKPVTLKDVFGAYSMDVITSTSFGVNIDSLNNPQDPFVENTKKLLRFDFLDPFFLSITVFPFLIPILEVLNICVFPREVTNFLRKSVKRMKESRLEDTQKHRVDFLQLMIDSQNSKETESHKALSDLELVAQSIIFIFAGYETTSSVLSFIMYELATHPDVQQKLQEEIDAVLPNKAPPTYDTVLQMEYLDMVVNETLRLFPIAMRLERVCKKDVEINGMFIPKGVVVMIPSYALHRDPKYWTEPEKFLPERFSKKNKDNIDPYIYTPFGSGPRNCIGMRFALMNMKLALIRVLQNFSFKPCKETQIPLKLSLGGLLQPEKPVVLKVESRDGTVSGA

Mus musculus [8] = test: Anti-inflammatory activity in B10.RII mouse model of mouse IL-23 mini circle induced psoriasiform dermatitis assessed as decrease in ear thickness at 100 mg/kg,po BID for 5 days by caliper analysis; type: functional; set-up: scale not given: the % may be the effect or the level left; details: time 5 day
CYP3A4 [9] = biological target: T1, CYP3A4; test: Induction of CYP3A4 in human hepatocytes assessed as fold increase in mRNA level at 10 uM incubated for 24 hrs by RT-qPCR analysis relative to control; type: ADME, cell-based, Hepatocyte; details: read-out: FC
[10] = Half life in dog at 1 mg/kg, iv; type: ADME, organism-based, Canis lupus familiaris; details: in vivo
[11] = In vivo inhibition of TYK2 in po dosed IL-12/IL-18 induced C57/B6 mouse model assessed as reduction in serum IFN-gamma production measured at 1 to 10000 ng/ml of whole blood drug exposure level measured after 30 mins; type: functional, organism-based; details: C57/B6, 0.5 h
[12] = Unbound clearance in rat blood at 1 mg/kg, iv or 1 mg/kg,po; type: ADME, organism-based; details: in vivo
[13] = biological target: T2, Non-receptor tyrosine-protein kinase TYK2 (Homo sapiens, UniProt P29597); test: Inhibition of TYK2 in human whole blood assessed as decrease in STAT4 phosphorylation preincubated for 30 mins followed by human IL-23 stimulation and measured after 20 mins by flow cytometry; type: tissue-based
T2 sequence (P29597 whole entry): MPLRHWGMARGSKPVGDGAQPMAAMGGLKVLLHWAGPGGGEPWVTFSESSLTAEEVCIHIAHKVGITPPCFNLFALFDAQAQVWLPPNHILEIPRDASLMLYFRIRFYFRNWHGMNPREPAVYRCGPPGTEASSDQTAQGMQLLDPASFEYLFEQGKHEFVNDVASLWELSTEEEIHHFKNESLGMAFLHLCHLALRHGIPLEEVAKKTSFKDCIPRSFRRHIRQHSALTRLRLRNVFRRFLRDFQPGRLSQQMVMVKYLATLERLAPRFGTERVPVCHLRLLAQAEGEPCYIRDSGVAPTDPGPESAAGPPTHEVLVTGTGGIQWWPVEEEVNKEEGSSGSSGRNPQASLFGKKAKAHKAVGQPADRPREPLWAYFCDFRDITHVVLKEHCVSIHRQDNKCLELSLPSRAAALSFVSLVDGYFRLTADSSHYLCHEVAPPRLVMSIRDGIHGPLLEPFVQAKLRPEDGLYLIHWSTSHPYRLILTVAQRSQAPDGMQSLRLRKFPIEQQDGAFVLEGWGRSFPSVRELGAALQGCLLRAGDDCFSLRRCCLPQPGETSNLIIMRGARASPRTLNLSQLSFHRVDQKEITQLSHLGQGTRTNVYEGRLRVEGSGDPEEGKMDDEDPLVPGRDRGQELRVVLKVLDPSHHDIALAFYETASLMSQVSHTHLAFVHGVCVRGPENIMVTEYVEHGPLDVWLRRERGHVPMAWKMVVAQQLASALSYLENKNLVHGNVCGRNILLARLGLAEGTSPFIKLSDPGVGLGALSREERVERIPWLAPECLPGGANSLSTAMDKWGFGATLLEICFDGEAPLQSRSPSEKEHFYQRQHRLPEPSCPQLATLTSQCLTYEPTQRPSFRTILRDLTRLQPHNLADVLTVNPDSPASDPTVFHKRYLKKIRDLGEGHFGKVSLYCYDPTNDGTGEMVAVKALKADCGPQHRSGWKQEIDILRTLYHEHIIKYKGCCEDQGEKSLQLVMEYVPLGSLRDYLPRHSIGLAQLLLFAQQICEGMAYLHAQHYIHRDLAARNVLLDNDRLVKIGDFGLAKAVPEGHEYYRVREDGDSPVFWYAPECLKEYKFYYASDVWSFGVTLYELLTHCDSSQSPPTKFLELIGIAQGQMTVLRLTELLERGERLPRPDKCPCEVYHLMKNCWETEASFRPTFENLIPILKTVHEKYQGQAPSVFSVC

[14] = In vivo inhibition of TYK2 in IL-12/IL-18 induced C57/B6 mouse model assessed as reduction in serum IFN-gamma production at 30 mg/kg,po pretreated for 30 mins prior to IL-12/IL-18 challenge and measured after 4 hrs by MSD assay; type: functional; details: C57/B6, 4.5 h, time 270 min
[15] = Oral bioavailability in dog at 1 mg/kg; type: ADME, organism-based, Canis lupus familiaris; details: in vivo
[16] = Metabolic stability in monkey hepatocytes assessed as intrinsic clearance for unbound fraction of drug; type: ADME, cell-based, Macaca mulatta, Hepatocyte; details: rhesus monkey
CYP3A4 [17] = biological target: T1, CYP3A4; test: Time dependent inhibition of CYP3A4 in human liver microsomes using midazolam as substrate assessed as 1'-OH midazolam metabolite formation at 50 uM preincubated for 30 mins in presence of NADPH followed by substrate addition and measured after 15 mins by HPLC-MS/MS analysis relative to control; type: ADME, Microsome; details: probe midazolam, time 45 min, read-out: TDI
[18] = Half life in rat at 1 mg/kg, iv or 1 mg/kg,po; type: ADME, organism-based; details: in vivo
[19] = Thermodynamic solubility in PBS at pH 7.4; type: physicochemical; details: read-out: Therm_solubility
[20] = Oral bioavailability in rat at 1 mg/kg; type: ADME, organism-based; details: in vivo
[21] = AUC (0 to infinity) in cynomolgus monkey at 1 mg/kg,po; type: ADME, organism-based, Macaca fascicularis; set-up: dose 1 mg/kg, route po; details: in vivo
[22] = Metabolic stability in dog hepatocytes assessed as intrinsic clearance for unbound fraction of drug; type: ADME, cell-based, Canis lupus familiaris, Hepatocyte
[23] = Oral bioavailability in cynomolgus monkey at 1 mg/kg; type: ADME, organism-based, Macaca fascicularis; details: in vivo
[24] = In vivo inhibition of TYK2 in IL-12/IL-18 induced C57/B6 mouse model assessed as reduction in serum IFN-gamma production at 300 mg/kg,po pretreated for 30 mins prior to IL-12/IL-18 challenge and measured after 4 hrs by MSD assay; type: functional; details: C57/B6, 4.5 h, time 270 min
Mus musculus [25] = test: Anti-inflammatory activity in B10.RII mouse model of mouse IL-23 mini circle induced psoriasiform dermatitis assessed as decrease in ear thickness at 100 mg/kg,po QD for 5 days by caliper analysis; type: functional; set-up: scale not given: the % may be the effect or the level left; details: time 5 day
[26] = AUC (0 to infinity) in dog at 1 mg/kg,po; type: ADME, organism-based, Canis lupus familiaris; set-up: dose 1 mg/kg, route po; details: in vivo
[27] = In vivo inhibition of TYK2 in IL-12/IL-18 induced C57/B6 mouse model assessed as reduction in serum IFN-gamma production at 10 mg/kg,po pretreated for 30 mins prior to IL-12/IL-18 challenge and measured after 4 hrs by MSD assay; type: functional; details: C57/B6, 4.5 h, time 270 min
[28] = biological target: T2, Non-receptor tyrosine-protein kinase TYK2; test: Inhibition of TYK2 in human T-blast cells assessed as IL-12 induced STAT4 phosphorylation at Tyr694 residue preincubated for 30 mins followed by IL-12 stimulation and measured after 20 mins by AlphaScreen assay; type: cell-based, T-blast cell
[29] = biological target: Non-receptor tyrosine-protein kinase TYK2 (Mus musculus, UniProt Q9R117); test: Inhibition of TYK2 in C57/B6 mouse whole blood assessed as decrease in STAT4 phosphorylation preincubated for 30 mins followed by mouse IL-12p70 stimulation and measured after 20 mins by flow cytometry; type: tissue-based
Sequence of Non-receptor tyrosine-protein kinase TYK2 (Mus musculus, UniProt Q9R117) (Q9R117 whole entry): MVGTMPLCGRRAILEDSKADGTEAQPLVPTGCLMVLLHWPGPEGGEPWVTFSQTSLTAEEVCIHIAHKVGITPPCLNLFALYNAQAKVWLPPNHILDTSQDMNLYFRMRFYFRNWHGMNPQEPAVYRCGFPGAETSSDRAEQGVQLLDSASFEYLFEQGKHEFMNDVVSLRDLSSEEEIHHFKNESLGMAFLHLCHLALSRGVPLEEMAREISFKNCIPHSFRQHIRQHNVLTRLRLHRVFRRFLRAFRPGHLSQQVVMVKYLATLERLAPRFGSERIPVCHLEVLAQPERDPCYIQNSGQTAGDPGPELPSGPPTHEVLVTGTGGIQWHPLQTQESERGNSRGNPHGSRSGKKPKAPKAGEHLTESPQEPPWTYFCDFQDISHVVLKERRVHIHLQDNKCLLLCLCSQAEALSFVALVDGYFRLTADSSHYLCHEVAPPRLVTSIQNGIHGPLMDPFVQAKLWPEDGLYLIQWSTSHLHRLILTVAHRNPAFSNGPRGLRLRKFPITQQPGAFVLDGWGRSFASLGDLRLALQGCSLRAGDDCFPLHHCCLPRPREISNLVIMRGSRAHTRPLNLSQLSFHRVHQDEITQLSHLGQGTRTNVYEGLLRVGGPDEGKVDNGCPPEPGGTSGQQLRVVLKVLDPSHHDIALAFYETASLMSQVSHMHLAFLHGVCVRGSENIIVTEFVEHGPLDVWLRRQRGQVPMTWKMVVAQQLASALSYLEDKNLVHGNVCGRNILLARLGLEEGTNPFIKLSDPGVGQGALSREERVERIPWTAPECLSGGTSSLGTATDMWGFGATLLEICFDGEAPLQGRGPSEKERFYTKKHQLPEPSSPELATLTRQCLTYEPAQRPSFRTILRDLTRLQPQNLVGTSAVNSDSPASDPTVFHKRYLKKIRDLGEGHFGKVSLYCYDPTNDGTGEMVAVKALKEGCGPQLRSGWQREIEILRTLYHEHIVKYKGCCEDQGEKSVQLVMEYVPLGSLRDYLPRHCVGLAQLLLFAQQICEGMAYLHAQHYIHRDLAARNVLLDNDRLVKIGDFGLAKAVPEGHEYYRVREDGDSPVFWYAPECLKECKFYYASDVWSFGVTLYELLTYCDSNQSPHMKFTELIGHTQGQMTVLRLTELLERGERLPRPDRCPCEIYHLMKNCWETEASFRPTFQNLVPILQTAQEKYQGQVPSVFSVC

[30] = In vivo inhibition of TYK2 in IL-12/IL-18 induced C57/B6 mouse model assessed as reduction in serum IFN-gamma production at 100 mg/kg,po pretreated for 30 mins prior to IL-12/IL-18 challenge and measured after 4 hrs by MSD assay; type: functional; details: C57/B6, 4.5 h, time 270 min
Mus musculus [31] = test: Anti-inflammatory activity in po dosed B10.RII mouse model of mouse IL-23 mini circle induced psoriasiform dermatitis assessed as decrease in ear thickness measured at 101 to 10000 ng/ml of whole blood drug exposure level measured after 30 mins; type: functional, organism-based; details: 0.5 h

Structure (SMILES): COCc1cc(-c2cn(C3COC3)c3cnc(NC(C)=O)cc23)nc([C@]2(OC)CCOC2)c1
- pEC50 [1]: < 4.70
- CL free [2]: 31.7 mL/min/kg
- CL free [3]: 7.67 mL/min/kg
- Activity (Mus musculus [4]): 38%
- CL free [5]: 38.3 mL/min/kg
- Activity (Mus musculus [6]): 51%
- Emax at 24 h, 10 µM (CYP3A4 [7]): 2%
- Activity (Mus musculus [8]): 61%
- fold induction at 24 h, 10 µM (CYP3A4 [9]): 1.5
- half-life [10]: 4.5 h
- IC50 [11]: 3.08 µg/mL (≈ 6.81 µM)
- CL free [12]: 68.3 mL/min/kg
- pEC50 [13]: 6.80
- inhibition in vivo at 30 mg/kg [14]: 77%
- bioavailability [15]: 88%
- CL free [16]: 45 mL/min/kg
- inhibition at 0.25 h, 50 µM (CYP3A4 [17]): 22%
- half-life [18]: 0.6 h
- solubility thermodynamic [19]: 708 µM (≈ 320 µg/mL)
- bioavailability [20]: 19%
- AUC(0-inf) [21]: 80 ng·h/mL
- CL free [22]: 21.7 mL/min/kg
- bioavailability [23]: 17%
- inhibition in vivo at 300 mg/kg [24]: 95%
- Activity (Mus musculus [25]): 58%
- AUC(0-inf) [26]: 2300 ng·h/mL
- inhibition in vivo at 10 mg/kg [27]: 24%
- pEC50 [28]: 6.71
- pEC50 [29]: 5.85
- inhibition in vivo at 100 mg/kg [30]: 84%
- EC50 (Mus musculus [31]): 0.3 µg/mL (≈ 0.663 µM)
